According to patent publication US20190125745A1, “TREATMENT AND DIAGNOSIS OF CANCER” (Rgenix, Inc., priority 2014, published 2019):
Structures can show the parent of a compound that is named as a salt.

What was measured:
[1] = test system: B16F10 parental and DTIC-resistant cells; experiment: Tumor growth by DTIC-sensitive and DTIC-resistant B16F10 cells; type: in vivo, mouse; settings: chow 100 mg/kg
Experimental: Dacarbazine-resistant B16F10 mouse melanoma cells were generated by continuously culturing the cells in the presence of DTIC (D2390, Sigma-Aldrich, St. Louis, Mo.). First, the cells were treated with 500 μg/mL DTIC for one week. Following this initial DTIC treatment, the remaining (˜10%) viable cells were allowed to recover for one week, after which 750 μg/mL of DTIC was added to the cell media for 5 days. Subsequent to this high-dose treatment, the cells were allowed to recover in the presence of low-dose DTIC (100 μg/mL) for one week. The cells were then continuously cultured in cell media containing 200 μg/mL DTIC for at least one month prior to grafting the cells into mice. DTIC was added to fresh cancer cell media every 3 days. For tumor growth experiments, 5×10^4 B16F10 parental and DTIC-resistant cells were subcutaneously injected into the lower flank of 7-week-old C57BL/6 mice.

[2] = test system: MeWo human melanoma cells; experiment: Tail-vein lung metastatic colonization by MeWo cells in NOD Scid mice; type: in vivo; settings: MeWo cells pre-treated 1 μM, 48 hours
Experimental: FIG. 6. LXR Agonism Suppresses Melanoma Metastasis to the Lung and Brain. (A) MeWo cells were pre-treated with DMSO or GW3965 (1 μM) for 48 hours and 4×10^4 cells were intravenously injected via the tail-vein into NOD Scid mice. Lung colonization was monitored by weekly bioluminescence imaging. Representative H&E-stained lungs correspond to the final day (d70) are shown. n=4-5. (B-C) Bioluminescence imaging of lung metastasis by 4×10^4 MeWo cells intravenously injected into NOD Scid mice that were fed a control chow or a chow containing GW3965 (20 mg/kg) or T0901317 (20 mg/kg) starting 10 days prior to cancer cell injection. Representative H&E-stained lungs correspond to final imaging day n=5-6. […] (H) Ex-vivo lung photon flux, determined by bioluminescence imaging, in NOD Scid mice that were administered a control chow or a chow containing GW3965 (100 mg/kg) for 1 month following the excision of size-matched (˜300-mm^3 in volume) subcutaneous melanoma tumors formed by 1×10^6 MeWo melanoma cells. […] Following initiation of metastases, detected by bioluminescence imaging on d42, mice were administered a control diet or a GW3965 diet (100 mg/kg) as indicated, and lung colonization progression was measured weekly. n=6. […]

[3] = test system: amyloid plaque pathology and memory deficits; settings: oral delivery; cited from earlier work
ApoE promoter = ApoE promoter activity assay (luciferase, ME.1/ME.2); type: cell-based, human; settings: 1 μM
From the text: FIG. 11. LXRβ Activation Suppresses Melanoma Invasion and Endothelial Recruitment by Transcriptionally Enhancing Melanoma-Cell ApoE Expression. […] Scale bar, 50 μm.
The ApoE promoter, consisting of a sequence spanning 980 base pairs upstream and 93 base pairs downstream of the ApoEgene, was cloned into a pGL3-Basic vector (E1751, Promega Corporation, Madison, Wis.) upstream of the firefly luciferase gene using NheI and SacI restriction enzymes. Then, multi-enhancer elements 1 (ME.1) and 2 (ME.2) were cloned directly upstream of the ApoE promoter using MluI and […] restriction enzymes. To assess ApoE promoter- and ME.1/ME.2-driven transcriptional activation by LXR agonists, 5×10^4 MeWo cells were seeded into a 24-well plate. […] To assess transcriptional activation by LXRα or LXRβ, 5×10^4 MeWo cells expressing a control shRNA or shRNA targeting LXRα or LXRβ were seeded into a 24-well plate. […] After 24 hours, cells were lysed, and cell lysate was analyzed for firefly and renilla luciferase activity using the Dual Luciferase Assay System (E1960, Promega) and a Bio-Tek Synergy NEO Microplate Reader. Firefly luciferase signal was normalized to renilla luciferase signal and all data are expressed relative to the luciferase activity ratio measured in the DMSO-treated control cells.

[4] = test system: RCC human renal cancer cells, PANC1 human pancreatic cancer cells, H460 human lung cancer cells; experiment: Trans-well matrigel invasion of renal, pancreatic and lung cancer cells; type: cell-based; settings: 1 μM, 72 hours
Experimental: FIG. 17. Treatment with the LXR agonist GW3965 inhibits In Vitro tumor cell invasion of renal cancer, pancreatic cancer, and lung cancer.
Following serum starvation, the cells were subjected to the trans-well invasion assay using a matrigel invasion chamber system (354480, BD Biosciences). Invasion chambers were pre-equilibrated prior to the assay by adding 0.5 mL of starvation media to the top and bottom wells. Meanwhile, cancer cells were trypsinized and viable cells were counted using trypan blue. Cancer cells were then resuspended at a concentration of 1×10^5 cells/1 mL starvation media, and 0.5 mL of cell suspension, containing 5×10^4 cells, was seeded into each trans-well. The invasion assay was allowed to proceed for 24 hours at 37′C. […] Following fixation, the inserts were washed in PBS and then cut out and mounted onto slides using VectaShield mounting medium containing DAPI nuclear stain (H-1000, Vector Laboratories). The basal side of each insert was imaged using an inverted fluorescence microscope (Zeiss Axiovert 40 CFL) at 5× magnification, and the number of DAPI-positive cells was quantified using ImageJ.

ApoE expression = ApoE expression by qRT-PCR in human melanoma cells
Experimental: (A-B) Parental MeWo cells were incubated in the presence of DMSO or GW3965 at the indicated concentrations. After 48 hours, total RNA was extracted, and the levels of ApoE (A) and DNAJA4 (B) were determined by qRT-PCR. n=3. (C) Cell invasion by 1×10^5 parental MeWo cells pre-treated with GW3965 or DMSO for 48 hours. n=6-7. p-values based on a one-sided student's t-test. […] (D) Endothelial recruitment by 5×10^4 parental MeWo cells pre-treated with GW3965 or DMSO for 48 hours. n=6-7. p-values based on a one-sided student's t-test. (E) Mice were fed with grain-based chow diet containing GW3965 (20 mg/kg) or a control diet. After 10 days, 4×10^4 parental MeWo cells were tail-vein injected into mice, and the mice were continuously fed with GW3965-containing chow or a control diet throughout the experiment.
(A-C) MeWo (A), HT-144 (B), and WM-266-4 (C) human melanoma cells were treated with GW3965 or T0901317 at the indicated concentrations for 48 hours, and the expression levels of ApoE were analysed by qRT-PCR. n=3. (D) Extracellular ApoE protein levels, quantified by ELISA, in serum-free conditioned media collected from HT-144 human melanoma cells treated with DMSO, GW3965, or T0901317 at 1 μM for 72 hours. n=3-4. […] (I-J) Relative ApoE expression, quantified by qRT-PCR, in MeWo (I) and HT-144 (J) cells transduced with a control shRNA or shRNAs targeting LXRα or LXRβ and subsequently treated with DMSO, GW3965, or T0901317 at 1 μM for 48 hours. n=3-9. (K) Extracellular ApoE protein levels, measured by ELISA, in serum-free conditioned media harvested from HT-144 cells transduced with a control shRNA or an shRNA targeting LXRα or LXRβ and treated with DMSO or GW3965 at 1 μM for 72 hours. n=3.
RNA was extracted from whole cell lysates using the Total RNA Purification Kit (17200, Norgen, Thorold, Canada). 600 ng of total RNA was then reverse transcribed into cDNA using the cDNA First-Strand Synthesis Kit (18080-051, Invitrogen), and quantitative real-time PCR amplification was performed as previously described (Pencheva et al., 2012) using an ABI Prism 7900HT Real-Time PCR System (Applied Biosystems, Austin, Tex.). […]
For every sample, 600 ng of RNA was reverse transcribed into cDNA using the cDNA First-Strand Synthesis kit (Invitrogen). […] Each reaction was carried out in quadruplicates, and ApoE mRNA expression levels were measured by quantitative real-time PCR amplification using an ABI Prism 7900HT Real-Time PCR System (Applied Biosystems). The relative ApoE expression was determined using the ΔΔCt method.

## O=C(O)Cc1cccc(OCCCN(Cc2cccc(C(F)(F)F)c2Cl)CC(c2ccccc2)c2ccccc2)c1 [GW3965 108, 3-[3-[N-(2-Chloro-3-trifluoromethylbenzyl)-(2,2-diphenylethyl)amino]propyloxy] phenylacetic acid hydrochloride]
[1]
  suppression of tumor growth by the DTIC-resistant B16F10 melanoma clone: more than 70%
[2]
  reduction in metastatic colonization capacity after pre-treatment of cells: more than 50 fold
[3]
  amyloid plaque pathology and memory deficits: improve amyloid plaque pathology and memory deficits
ApoE promoter
  ability to upregulate ApoE transcription and protein expression upon melanoma cell depletion of LXRβ, but not LXRα: abrogated
[4]
  tumor cell invasion in all three cancer types tested: inhibition
ApoE expression
  potency of inducing ApoE expression in vitro: potently induce
